Results from patent publication US11542273B2, “Amide compound having bet proteolysis-inducing action and medicinal application thereof” (MITSUBISHI TANABE PHARMA CORPORATION, priority 2018, dated 2023).
Where two headings read alike, the source gives them in different places.

Key:
[1] = system: human acute myeloid leukemia MV-4-11 cell transplanted mouse; assay: Antitumor effect in human acute myeloid leukemia MV-4-11 cell transplanted mouse; type: in vivo; details: MV4-11, iv, 360 h
Description: The in vivo antitumor effect of the compound of the present invention was studied using human acute myeloid leukemia MV-4-11 cell transplanted mouse. MV-4-11 cells were subcutaneously transplanted into the inguinal region of male, 6-week-old BALB/c nude mouse (5×10^6 cells/mouse). The compound of the present invention was administered into the tail vein on days 1, 5, 9, 13 from the time point when the assumed tumor volume determined from 1/2ab^2 (a is major axis and b is minor axis of tumor) reached about 100 mm^3 (day 1). The control group was administered with a solvent, 10% hydroxypropyl-β-cyclodextrin solution. On day 15, the tumor was isolated, the weight was measured, and the tumor growth inhibitory rate IR (%) was calculated by the following formula. tumor growth inhibitory rate IR (%)=(1−tumor weight of administration group/tumor weight of nonadministration control group)×100

[2] = system: human prostate cancer LNCaP cells; assay: Cytotoxic action on cancer cells (WST-8, 96 hr); type: cell-based; details: Homo sapiens, LNCaP, 96 h, read-out: LNCaP cytotoxic activity: IC50
Procedure, shortened: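 Growth medium was 10% FBS/RPMI1640 throughout, with compound added after an overnight culture at 37° C. Survival was scored by WST-8 relative to untreated cells.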

BRD4 protein = BRD4 protein (Homo sapiens (Human), UniProt O60885); assay: BRD4 protein degradation inducing action in cancer cells (immunofluorescence, Operetta); type: cell-based; details: LNCaP cells, 6 hr treatment, fluorescence intensity
Procedure, shortened: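 DC50 = compound concentration reducing BRD4 immunofluorescence to 50% of untreated cells, interpolated between the two flanking concentrations. Treatment: LNCaP cells, 6 hr, 10% FBS/RPMI1640, 37° C. Cells were then fixed, permeabilized, stained with anti-BRD4 and Alexa Fluor 488 or 546 secondaries, and imaged.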

[3] = read-out: tumor growth inhibitory rate

DC50 (BRD4 protein) [nM] | Compound | inhibition in vivo at 3 mg/kg [1, 3] [%] | IC50 [2] [nM] | inhibition in vivo at 0.3 mg/kg ([1]; dose 0.3 mg/kg/day, tail vein on days 1, 5, 9, 13, tumor weight on day 15, read-out: tumor growth inhibitory rate) [%] | inhibition in vivo at 3 mg/kg ([1]; dose 3 mg/kg/day, tail vein on days 1, 5, 9, 13, tumor weight on day 15, read-out: tumor growth inhibitory rate) [%]
0.55 | COC(=O)C[C@@H]1N=C(c2ccc(N3CC[C@@H](C(=O)NCCOc4ccc5oc(C(=O)N[C@H](C(=O)N6C[C@H](O)C[C@H]6C(=O)N[C@@H](C)c6ccc(-c7scnc7C)cc6)C(C)(C)C)cc5c4)C3)cc2)c2c(sc(C)c2C)-n2c(C)nnc21 [Example 67, methyl [(6S)-4-(4-{(3R)-3-[(2-{[2-({(2S)-1-[(2S,4R)-4-hydroxy-2-({(1S)-1-[4-(4-methyl-1,3-thiazol-5-yl)phenyl]ethyl}carbamoyl)pyrrolidin-1-yl]-3,3-dimethyl-1-oxobutan-2-yl}carbamoyl]-1-benzofuran-5-yl]oxy}ethyl)carbamoyl]pyrrolidin-1-yl}phenyl)-2,3,9-trimethyl-6H-thieno[3,2-f][1,2,4]triazolo[4,3-a][1,4]diazepin-6-yl]acetate] |  | 0.47 |  | 97.7
0.62 | Cc1ncsc1-c1ccc([C@H](C)NC(=O)[C@@H]2C[C@@H](O)CN2C(=O)[C@@H](NC(=O)c2ccc(-c3ccc(C4=N[C@@H](CC(=O)N(C)C)c5nnc(C)n5-c5sc(C)c(C)c54)cc3)c(F)c2)C(C)(C)C)cc1 [Example 207, (2S,4R)-1-{(2S)-2-[(4′-{(6S)-6-[2-(dimethylamino)-2-oxoethyl]-2,3,9-trimethyl-6H-thieno [3,2-f][1,2,4]triazolo [4,3-a] [1,4]diazepin-4-yl}-2-fluoro [1,1′-biphenyl]-4-carbonyl)amino]-3,3-dimethylbutanoyl}-4-hydroxy-N-{(1S)-1-[4-(4-methyl-1,3-thiazol-5-yl)phenyl]ethyl}pyrrolidine-2-carboxamide] |  | 0.43 |  | 
0.74 | COC(=O)C[C@@H]1N=C(c2ccc(-c3cccc(C(=O)N[C@H](C(=O)N4C[C@H](O)C[C@H]4C(=O)N[C@@H](C)c4ccc(-c5scnc5C)cc4)C(C)(C)C)c3)cc2)c2c(sc(C)c2C)-n2c(C)nnc21 [Example 60, methyl {(6S)-4-[3′-({(2S)-1-[(2S,4R)-4-hydroxy-2-({(1S)-1-[4-(4-methyl-1,3-thiazol-5-yl)phenyl]ethyl}carbamoyl)pyrrolidin-1-yl]-3,3-dimethyl-1-oxobutan-2-yl}carbamoyl)[1,1′-biphenyl]-4-yl]-2,3,9-trimethyl-6H-thieno[3,2-f][1,2,4]triazolo[4,3-a][1,4]diazepin-6-yl}acetate] |  | 0.12 |  | 
0.75 | COC(=O)C[C@@H]1N=C(c2ccc(-c3ccc(OCC(=O)N[C@H](C(=O)N4C[C@H](O)C[C@H]4C(=O)N[C@@H](C)c4ccc(-c5scnc5C)cc4)C(C)(C)C)cc3OC(F)(F)F)cc2)c2c(sc(C)c2C)-n2c(C)nnc21 [Example Compound 75, methyl [(6S)-4-{4′-[2-({(2S)-1-[(2S,4R)-4-hydroxy-2-({(1S)-1-[4-(4-methyl-1,3-thiazol-5-yl)phenyl]ethyl}carbamoyl)pyrrolidin-1-yl]-3,3-dimethyl-1-oxobutan-2-yl}amino)-2-oxoethoxy]-2′-(trifluoromethoxy)[1,1′-biphenyl]-4-yl}-2,3,9-trimethyl-6H-thieno[3,2-f] [1,2,4]triazolo[4,3-a][1,4]diazepin-6-yl]acetate] |  | 0.39 |  | 

Continued, molecule first:

Compound | DC50 (BRD4 protein) [nM] | inhibition in vivo at 3 mg/kg [1, 3] [%] | IC50 [2] [nM] | inhibition in vivo at 0.3 mg/kg ([1]; dose 0.3 mg/kg/day, tail vein on days 1, 5, 9, 13, tumor weight on day 15, read-out: tumor growth inhibitory rate) [%] | inhibition in vivo at 3 mg/kg ([1]; dose 3 mg/kg/day, tail vein on days 1, 5, 9, 13, tumor weight on day 15, read-out: tumor growth inhibitory rate) [%]
COC(=O)C[C@@H]1N=C(c2ccc(-c3ccc(C(=O)N[C@H](C(=O)N4C[C@H](O)C[C@H]4C(=O)N[C@@H](C)c4ccc(-c5scnc5C)cc4)C(C)(C)C)c(F)c3)cc2)c2c(sc(C)c2C)-n2c(C)nnc21 [Example 94, methyl {(6S)-4-[3′-fluoro-4′-({(2S)-1-[(2S,4R)-4-hydroxy-2-({(1S)-1-[4-(4-methyl-1,3-thiazol-5-yl)phenyl]ethyl}carbamoyl)pyrrolidin-1-yl]-3,3-dimethyl-1-oxobutan-2-yl}carbamoyl)[1,1′-biphenyl]-4-yl]-2,3,9-trimethyl-6H-thieno[3,2-f][1,2,4]triazolo[4,3-a][1,4]diazepin-6-yl}acetate] | 0.64 | 98.2 | 0.29 |  | 
COC(=O)C[C@@H]1N=C(c2ccc(-c3ccc4oc(C(=O)N[C@H](C(=O)N5C[C@H](O)C[C@H]5C(=O)N[C@@H](C)c5ccc(-c6scnc6C)cc5)C(C)(C)C)nc4c3)cc2)c2c(sc(C)c2C)-n2c(C)nnc21 [Example 101, methyl [(6S)-4-{4-[2-({(2S)-1-[(2S,4R)-4-hydroxy-2-({(1S)-1-[4-(4-methyl-1,3-thiazol-5-yl)phenyl]ethyl}carbamoyl)pyrrolidin-1-yl]-3,3-dimethyl-1-oxobutan-2-yl}carbamoyl)-1,3-benzoxazol-5-yl]phenyl}-2,3,9-trimethyl-6H-thieno[3,2-f][1,2,4]triazolo[4,3-a][1,4]diazepin-6-yl]acetate] | 0.052 | 98.2 | 0.059 |  | 
COC(=O)C[C@@H]1N=C(c2ccc(-c3ccc(OCC(=O)N[C@H](C(=O)N4C[C@H](O)C[C@H]4C(=O)NCc4ccc(-c5scnc5C)cc4)C(C)(C)C)cc3)cc2)c2c(sc(C)c2C)-n2c(C)nnc21 [Example 61, methyl [(6S)-4-{4′-[2-({(25)-1-[(2S,4R)-4-hydroxy-2-({[4-(4-methyl-1,3-thiazol-5-yl)phenyl]methyl}carbamoyl)pyrrolidin-1-yl]-3,3-dimethyl-1-oxobutan-2-yl}amino)-2-oxoethoxy][1,1′-biphenyl]-4-yl}-2,3,9-trimethyl-6H-thieno[3,2-f][1,2,4]triazolo[4,3-a][1,4]diazepin-6-yl]acetate] | 0.81 | 97.2 | 0.17 |  | 
COC(=O)N[C@@H]1N=C(c2ccc(-c3ccc(OCC(=O)N[C@H](C(=O)N4C[C@H](O)C[C@H]4C(=O)N[C@@H](C)c4ccc(-c5scnc5C)cc4)C(C)(C)C)cc3)cc2)c2c(sc(C)c2C)-n2c(C)nnc21 [Example 31, methyl [(6R)-4-{4′-[2-({(2S)-1-[(2S,4R)-4-hydroxy-2-({(1S)-1-[4-(4-methyl-1,3-thiazol-5-yl)phenyl]ethyl}carbamoyl)pyrrolidin-1-yl]-3,3-dimethyl-1-oxobutan-2-yl}amino)-2-oxoethoxy][1,1′-biphenyl]-4-yl}-2,3,9-trimethyl-6H-thieno[3,2-f][1,2,4]triazolo[4,3-a][1,4]diazepin-6-yl]carbamate] | 0.062 |  | 0.039 | 95.6 | 
COC(=O)C[C@@H]1N=C(c2ccc(-c3ccc(/C=C/C(=O)N[C@H](C(=O)N4C[C@H](O)C[C@H]4C(=O)N[C@@H](C)c4ccc(-c5scnc5C)cc4)C(C)(C)C)cc3)cc2)c2c(sc(C)c2C)-n2c(C)nnc21 [Example 27, methyl [(6S)-4-{4′-[(1E)-3-({(2S)-1-[(2S,4R)-4-hydroxy-2-({(1S)-1-[4-(4-methyl-1,3-thiazol-5-yl)phenyl]ethyl}carbamoyl)pyrrolidin-1-yl]-3,3-dimethyl-1-oxobutan-2-yl}amino)-3-oxopropen-1-yl][1,1′-biphenyl]-4-yl}-2,3,9-trimethyl-6H-thieno[3,2-f][1,2,4]triazolo[4,3-a] [1,4]diazepin-6-yl]acetate] | 0.085 |  | 0.064 |  | 
